Assay results: paper PMC12544700, “Identification of a Small Secretoneurin Derivative That Inhibits CaMKIIδ Activity” (Journal of Cellular and Molecular Medicine, 2025)
Peptide text beside a SMILES is read from it. * marks the point of attachment. Biotin = O=C1N[C@H]2[C@H](CS[C@H]2CCCCC(=O)*)N1; Ahx = NCCCCCC(=O)O

Legend:
[1] = biological target: T1, human His‐CaMKIIδ‐T287D (Homo sapiens, UniProt Q13557, T287D); assay: CaMKII pull-down with biotinylated peptides on streptavidin beads; type: binding; settings: biotin‐SN‐db‐short vs biotin‐SN; immunoblot; Figure S2A, n = 8
T1 construct: Recombinant human His‐CaMKIIδ‐T287D and rat His‐CaMKIIδ‐T287D full‐length proteins; His; purchased Genscript Corp (custom made)
T1 sequence (Q13557 whole entry T287D): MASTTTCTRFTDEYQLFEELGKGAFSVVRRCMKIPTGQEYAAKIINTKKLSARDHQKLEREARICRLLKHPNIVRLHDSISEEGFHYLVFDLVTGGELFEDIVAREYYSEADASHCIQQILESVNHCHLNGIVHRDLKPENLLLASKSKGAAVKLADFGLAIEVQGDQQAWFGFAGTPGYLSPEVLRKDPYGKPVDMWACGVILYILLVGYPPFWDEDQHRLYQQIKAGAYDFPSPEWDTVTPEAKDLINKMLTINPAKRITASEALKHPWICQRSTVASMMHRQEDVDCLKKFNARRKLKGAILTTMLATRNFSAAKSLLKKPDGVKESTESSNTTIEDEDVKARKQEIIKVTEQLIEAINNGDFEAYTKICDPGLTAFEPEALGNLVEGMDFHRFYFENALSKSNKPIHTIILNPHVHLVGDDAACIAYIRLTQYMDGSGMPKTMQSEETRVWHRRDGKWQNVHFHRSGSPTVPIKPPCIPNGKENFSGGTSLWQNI
Protocol: In the CaMKII pull‐down assay, the biotinylated peptides (20 μL) were coupled to 50 μL of streptavidin magnetic beads (88816, Thermo Fisher) in PBS for 2 h at 4°C with rotation. The bead‐bound peptides were thereafter incubated with 1 μg of human His‐CaMKIIδ‐T287D in 300 μL of PBS or PBS with 1% BSA for 2 h at 4°C with rotation. The protein complexes attached to the beads were then washed three times in 300 μL of IP buffer (20 mM Hepes, pH 7.5, 150 mM NaCl, 1 mM EDTA, 1% Triton X‐100, supplemented with complete protease inhibitor cocktail and phosphatase inhibitor cocktail) or PBS. Samples were boiled in SDS loading buffer at 95°C for 5 min before western blot analysis.
Lysates and immunoprecipitates were separated on 12% or 4%–15% Criterion TGX precast gels (5671044 and 5671084, Biorad, Hercules, CA, USA), blotted onto PVDF membranes (1704157 by Biorad or 03010040001 by Sigma Merck) and reversibly stained with Revert 700 Total Protein Stain (Li‐COR Biosciences, Lincoln, NE, USA). […] Blots were developed using ECL (RPN2236, GE Healthcare, Chicago, IL, USA) after four washing steps of 10 min in TBS‐t and the chemiluminescence signals were detected by Azure Biosystems 600 (Dublin, CA, USA). […] ImageJ [13] was used to quantify the blots. […]

[2] = biological target: T2, Recombinant rat CaMKIIδ‐T287D (Rattus norvegicus, UniProt P15791, T287D); assay: ELISA-based competition assay with T‐site binding peptides; settings: 5 μL 1 mM biotin‐SN‐db‐short with 20 μL 1 mM untagged competitor; Figure 2C, n = 4–12
T2 construct: Recombinant human His‐CaMKIIδ‐T287D and rat His‐CaMKIIδ‐T287D full‐length proteins; His; purchased Genscript Corp (custom made)
Protocol: The wells were then washed five times with 1× PBS‐t. […] For the competition assay, 20 μL (1 mM) of T‐site binding peptides AKAP18δ‐N1, CN21 or CN27 (without any biotin tags) were incubated in the same well with 5 μL (1 mM) of SN biotinylated peptides.

[3] = test system: adult rat cardiomyocytes; assay: Caffeine-elicited Ca2+ transients (Ca2+ extrusion); type: cell-based; settings: 10 mM caffeine; whole‐cell photometry; Figure S3, n = 10–18, 4–6 rats
Protocol: Male Wistar rats (Janvier, France) weighing ~300 g were sedated in an anaesthesia chamber by inhalation of 5% isoflurane and 95% O2. The heart was excised under deep surgical anaesthesia, cannulated, and then retrogradely perfused through the aorta on a modified Langendorff setup with cell isolation solution containing (in mM, pH adjusted to 7.4, 37°C): NaCl 130, Hepes 25, D‐glucose 22, KCl 5.4, MgCl2 0.5, NaH2PO4 0.4, and a flow rate of 4 mL/min. After the heart was cleaned of blood, collagenase type II (2 mg/mL, Worthington Biochemical Corp, Lakewood, NJ, USA) was added to the perfusate, and the hearts digested for ~10 min. Following digestion, hearts were cut down, and the left ventricle dissected into pieces, which were transferred into 10 mL cell isolation solution with 250 μL BSA (40 mg/mL) and ~0.2 mg Deoxyribonuclease I (Worthington Biochemical Corporation, Lakewood, NJ, USA). […]
To estimate SR Ca^2+ content, Ca^2+ release was triggered by rapid exposure to 10 mM caffeine (Sigma) and recorded by whole‐cell photometry (Photon Technology International, Monmouth Junction, NJ, USA) with a 40× oil objective. Cells were first stimulated at 1 Hz in Hepes‐Tyrode (HT, see the paragraph above) solution containing CaCl2 until at least three stable Ca^2+ transients were recorded. […]

## CC(C)C[C@H](NC(=O)[C@H](CCC(=O)O)NC(=O)[C@H](CCC(N)=O)NC(=O)[C@H](Cc1ccccc1)NC(=O)[C@H](Cc1ccccc1)NC(=O)[C@H](CO)NC(=O)[C@H](CCC(=O)O)NC(=O)[C@H](Cc1ccccc1)NC(=O)[C@@H](NC(=O)[C@H](C)NC(=O)[C@H](CC(C)C)NC(=O)[C@H](CO)NC(=O)[C@H](CCC(N)=O)NC(=O)[C@@H]1CCCN1C(=O)[C@@H](NC(=O)[C@H](Cc1ccc(O)cc1)NC(=O)[C@H](CCC(N)=O)NC(=O)[C@H](CCC(=O)O)NC(=O)CCCCCNC(=O)CCCC[C@@H]1SC[C@@H]2NC(=O)N[C@@H]21)[C@@H](C)O)[C@@H](C)O)C(=O)NCC(=O)N[C@@H](CCCCN)C(=O)O [SN‐db‐short] ({Biotin-Ahx}-EQYTPQSLATFESFFQELGK-OH; N-terminus and C-terminus assumed)
[1]
  Binding to recombinant human CaMKIIδ‐T287D vs. native SN (pull down): increased binding
[2]
  SN‐db‐short binding to CaMKIIδ‐T287D in presence of competitor peptides AKAP18δ‐N1, CN21, CN27: only marginally outcompeted
[3]
  Rate of Ca2+ extrusion (Na+‐Ca2+ exchanger and plasma membrane Ca2+ ATPase activity): no change
